Structures are written as SMILES.

One test concerns MGC-803. The experiment in a line: Antiproliferative activity against human MGC-803 cells assessed as reduction in cell viability measured after 72 hrs by CCK-8 assay. It counts as functional, cell-based. The following applies: MGC-803, 72 h.
Another test concerns AGS. The experiment in a line: Antiproliferative activity against human AGS cells assessed as reduction in cell viability incubated for 72 hrs by CCK-8 assay. It counts as functional, cell-based.

Take `O=C([C@H]1CCN1S(=O)(=O)c1c(F)c(F)c(F)c(F)c1F)N(Cc1ccc(C2CCCCC2)cc1)c1ccc(B(O)O)cc1`: the IC50 was 4.83 µM in the test on MGC-803 and 1.98 µM with AGS.

The record behind these values is ChEMBL document CHEMBL5214948, “Boronic Acid: A Novel Pharmacophore Targeting Src Homology 2 (SH2) Domain of STAT3” (J Med Chem, 2022).
